One may read the IC50 as the concentration needed to halve the response being measured. Low readings indicate higher potency, high ones lower potency.

Two compounds from publication PMC3234531 (2011) can be followed below.

For assay [1], the target named is IKca channel (intermediate conductance potassium channel) (Homo sapiens, UniProt O15554). The assay is described as follows: modified biotin switch. The assay is classed as cell-based.
For assay [2], the target named is cystathionine γ-lyase (CSE). The assay is described as follows: CSE activity assay after pre-incubation with the NO donor S-nitroso-glutathione. Type of assay: biochemical.

IKca channel (intermediate conductance potassium channel), sequence (O15554 whole entry): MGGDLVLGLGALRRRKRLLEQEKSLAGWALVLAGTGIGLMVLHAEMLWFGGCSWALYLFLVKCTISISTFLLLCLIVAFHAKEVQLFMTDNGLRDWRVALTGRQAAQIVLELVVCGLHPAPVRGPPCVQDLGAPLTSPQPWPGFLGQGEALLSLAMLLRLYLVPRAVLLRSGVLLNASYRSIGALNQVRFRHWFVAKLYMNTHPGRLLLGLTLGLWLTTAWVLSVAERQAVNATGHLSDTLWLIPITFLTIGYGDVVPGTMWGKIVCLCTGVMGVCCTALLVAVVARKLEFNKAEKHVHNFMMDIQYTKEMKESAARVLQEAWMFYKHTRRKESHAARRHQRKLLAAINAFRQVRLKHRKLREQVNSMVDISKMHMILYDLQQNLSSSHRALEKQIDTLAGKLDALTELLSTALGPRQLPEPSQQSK

Regarding `S` [H2S], in assay [1], the “modified biotin switch (S-sulfhydration) assay, DTT-sensitive” value was “IKca channels from human aortic endothelial cells are sulfhydrated by NaHS in a DTT-sensitive fashion”.

In the case of `[N]=O` [NO], the IC50 in assay [2] is roughly 100 nM.
